Results from US8754115B2, “Fungicidal pyrazoles” (E I du Pont de Nemours and Company, priority 2010, dated 2014).
Marks after values point to notes of the source that are not given here.

Columns and labels:
Type in all cases: in vivo
Botrytis cinerea = test: Test A: preventive spray on tomato seedlings, visual disease rating (tomato Botrytis)
How it was run: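 Preventive test: Botrytis cinerea spores applied one day after run-off spraying at 200 ppm (≈800 g/ha), or 40 ppm where asterisked. Incubation 48 h at 20 °C in saturated air, then 3 days at 24 °C; disease scored visually from 0 (no control) to 100 (complete control) versus untreated.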

Alternaria solani = test: Test B: preventive spray on tomato seedlings, visual disease rating (tomato early blight)
How it was run: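 Compounds were suspended at 200 ppm (asterisked values at 40 ppm) in acetone/water with surfactant and sprayed to run-off on tomato seedlings, 200 ppm being equivalent to 800 g/ha. A. solani spores were inoculated the next day, with 48 h at 27 °C in saturated air, then 5 days at 20 °C. Disease control was rated visually, 0–100% relative to controls.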

Septoria nodorum = test: Test C: preventive spray on wheat seedlings, visual disease rating (Septoria glume blotch)
How it was run: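 Wheat seedlings were sprayed to run-off with 200 ppm suspension (40 ppm where marked; 200 ppm ≈ 800 g/ha) in acetone/water with 250 ppm Trem 014, then inoculated next day with Septoria nodorum spores. Incubation was 48 h saturated at 24 °C, then 6 days at 20 °C; visual rating 0–100% disease control versus controls.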

Septoria tritici = test: Test D: preventive spray on wheat seedlings, visual disease rating (wheat leaf blotch)
How it was run: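 Protection was scored visually on a 0–100% disease-control scale versus controls, 19 days after plants were moved to 20 °C following 48 h of 24 °C saturated humidity. Spore inoculation with S. tritici took place one day after a preventive run-off spray, usually at 200 ppm (800 g/ha) and at 40 ppm where asterisked.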

[1] = tested on: Puccinia recondite f. sp. tritici; test: Test E1: curative spray on wheat seedlings after inoculation, visual disease rating (wheat leaf rust)
How it was run: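 Seedlings inoculated with rust spores, held 24 h in saturated atmosphere at 20 °C, then 2 days at 20 °C before curative spray to run-off with test suspension (200 ppm ≈ 800 g/ha, or 40 ppm where marked) in acetone/water with surfactant. Visual disease control rating (0–100) after 6 further days at 20 °C.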

[2] = tested on: Puccinia recondite f. sp. tritici; test: Test E2: preventive spray on wheat seedlings, visual disease rating (wheat leaf rust)
How it was run: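 Wheat seedlings were inoculated with leaf rust spores one day after a run-off spray of compound at 200 ppm (asterisk: 40 ppm) in 50/50 acetone/water with 250 ppm Trem 014. Incubation: 24 h saturated humidity, 20 °C; then 7 days growth chamber, 20 °C. Disease control scored visually, 0–100% relative to controls.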

[3] = tested on: Blumeria graminis f. sp. tritici; test: Test F: preventive spray on wheat seedlings, visual disease rating (wheat powdery mildew)
How it was run: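 Visual ratings (0–100% control relative to controls) taken 8 days after spore-dust inoculation at 20° C. Inoculation followed one day after a protective run-off spray of 200 ppm suspension, equal to 800 g/ha, or 40 ppm where flagged, made in acetone/water with 250 ppm surfactant.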

[4] = no asterisk: standard test suspension, not 40 ppm, 100 = 100% disease control, 0 = none
[5] = no asterisk: standard test suspension, not 40 ppm
[6] = asterisk: 40 ppm test suspension

| Compound | Test A rating (% disease control) (Botrytis cinerea; [4]) [%] | Test B rating (% disease control) (Alternaria solani; [5]) [%] | Test C rating (% disease control) (Septoria nodorum; [5]) [%] | Test D rating (% disease control) (Septoria tritici; [5]) [%] | Test E1 rating (% disease control) [1, 5] [%] | Test E2 rating (% disease control) [2, 5] [%] | Test F rating (% disease control) [3, 5] [%] | Test A rating (% disease control) (Botrytis cinerea; [6]) | Test B rating (% disease control) (Alternaria solani; [6]) | Test C rating (% disease control) (Septoria nodorum; [6]) | Test D rating (% disease control) (Septoria tritici; [6]) | Test E1 rating (% disease control) [1, 6] | Test E2 rating (% disease control) [2, 6] | Test F rating (% disease control) [3, 6] |
| --- | --- | --- | --- | --- | --- | --- | --- | --- | --- | --- | --- | --- | --- | --- |
| COc1ccc(-c2c(Oc3ccc(F)cc3Cl)c(C)nn2C)c(Cl)c1 [compound 31] | 100 | 0 | 0 | 100 | 0 | 92 | 96 |  |  |  |  |  |  |  |
| Cc1nn(C)c(-c2ccc(F)cc2Cl)c1C(O)c1ccc(F)cc1Cl (stereo not drawn) [compound 18] | 100 | 83 | 0 | 100 | 100 | 100 | 100 |  |  |  |  |  |  |  |
| Cc1nn(C)c(-c2ccc(F)cc2F)c1Nc1ccc(F)cc1Cl [compound 57] |  |  |  |  |  |  |  | 99* % | 0* % | 0* % | 81* % | 0* % | 18* % | 97* % |
| Cc1nn(C)c(-c2ccc(F)cc2Cl)c1C(O)c1ccc(C#N)cc1F (stereo not drawn) [compound 25] | 100 | 99 | 89 | 100 | 9 | 100 | 96 |  |  |  |  |  |  |  |
| Cc1nn(C)c(-c2ccc(F)cc2Cl)c1C(O)c1ccc(F)cc1F (stereo not drawn) [compound 17] | 100 | 94 | 60 | 100 | 83 | 100 | 100 |  |  |  |  |  |  |  |
| Cc1nn(C)c(-c2c(F)cccc2F)c1Nc1ccc(Cl)cc1Cl [compound 65] | 100 | 0 | 0 | 100 | 9 | 89 | 100 |  |  |  |  |  |  |  |
| Cn1nc(C#N)c(C(=O)c2ccc(F)cc2Cl)c1-c1c(F)cccc1F [Compound 52, 4-(2-chloro-4-fluorobenzoyl)-5-(2,6-difluorophenyl)-1-methyl-1H-pyrazole-3-carbonitrile] | 100 | 100 | 99 | 100 | 98 | 100 | 100 |  |  |  |  |  |  |  |
| Cc1nn(C)c(-c2c(F)cccc2F)c1C(F)c1ccc(F)cc1Cl (stereo not drawn) [Compound 54] | 100 | 100 | 99 | 100 | 100 | 99 | 99 |  |  |  |  |  |  |  |
| Cc1nn(C)c(-c2c(F)cccc2F)c1C(O)c1c(F)cc(F)cc1F (stereo not drawn) [compound 15] | 100 | 100 | 86 | 100 | 68 | 100 | 100 |  |  |  |  |  |  |  |
| Cc1nn(C)c(-c2c(F)cc(F)cc2F)c1C(=O)c1ccc(F)cc1Cl [compound 59] | 66 | 0 | 0 | 58 | 0 | 80 | 100 |  |  |  |  |  |  |  |
| Cc1nn(C)c(-c2c(F)cccc2Cl)c1C(O)c1c(F)cc(F)cc1F (stereo not drawn) [compound 34] | 100 | 99 | 100 | 100 | 84 | 99 | 100 |  |  |  |  |  |  |  |
| Cc1nn(C)c(-c2ccc(F)cc2Cl)c1Oc1ccc(C#N)cc1Cl [compound 43] | 98 | 0 | 0 | 100 | 0 | 98 | 97 |  |  |  |  |  |  |  |
| Cc1nn(C)c(-c2c(F)cccc2F)c1C(Cl)c1ccc(F)cc1Cl (stereo not drawn) [Compound 84] |  |  |  |  |  |  |  | 96* % | 100* % | 99* % | 100* % | 41* % | 100* % | 100* % |
| COc1cc(F)c(C(O)c2c(C)nn(C)c2-c2ccc(F)cc2Cl)c(F)c1 (stereo not drawn) [compound 20] |  |  |  |  |  |  |  | 97* % | 97* % | 0* % | 100* % | 99* % | 99* % | 92* % |
| Cc1nn(C)c(-c2c(F)cccc2F)c1C(O)c1ccc(C#N)cc1F (stereo not drawn) [compound 22] | 88 | 84 | 0 | 100 | 17 | 88 | 0 |  |  |  |  |  |  |  |
